This passage reports GI50 and TGI results from PubChem BioAssay (NCI).

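The compound was tested at five concentrations on cells cultured in 96-well plates, with a 48-hour exposure period. GI50 marks 50% less growth. TGI is the concentration that stops growth completely.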

Some test systems named below: A549 NSCLC; HCT-15 colon; HOP-92 NSCLC; HS 578T breast; HT29 colon; NCI-H460 lung; SF-268 CNS; A498 renal.
Experiment in all cases: growth of human tumour cells (NCI), 48 h

For `NS(=O)(=O)NCCNc1nonc1C(=Nc1ccc(F)c(Br)c1)NO`, the GI50 is 68.9 µM with A549 NSCLC; 39.4 µM in the test with HCT-15 colon; 23.6 µM in the test with HOP-92 NSCLC; 30.3 µM with HS 578T breast; 66 µM with HT29 colon; 35.9 µM in the test with NCI-H460 lung. For the same compound, the GI50 in the test on SF-268 CNS was 38.8 µM. The TGI was over 100 µM in the test on A549 NSCLC; over 100 µM in the test with HCT-15 colon; 86.2 µM in the test with HOP-92 NSCLC; over 100 µM with HS 578T breast; over 100 µM in the test with HT29 colon; over 100 µM in the test on NCI-H460 lung. Moreover, the TGI with SF-268 CNS is over 100 µM.
In the case of `CC(=O)c1c(CO[N+](=O)[O-])n([O-])c2ccccc2[n+]1=O`, the TGI with A549 NSCLC, in the test with HCT-15 colon, in the test on HOP-92 NSCLC, in the test on HS 578T breast, in the test with HT29 colon and in the test on NCI-H460 lung was over 100 µM in each case. The compound further registered a TGI with SF-268 CNS of over 100 µM.
`Cc1ccc(NC(=O)CSc2nnc3n(Cc4ccccc4)c(=O)c4c(C)c(C(N)=O)sc4n23)cc1`: the GI50 is 13.2 µM in the test with A498 renal; over 100 µM in the test on A549 NSCLC; over 100 µM in the test with HCT-15 colon; 2.57 µM with HOP-92 NSCLC; 5.22 µM with HS 578T breast; over 100 µM in the test with HT29 colon. In addition, the GI50 in the test with SF-268 CNS is 14.4 µM. Moreover, the TGI with A498 renal was 63.1 µM; with A549 NSCLC it was over 100 µM; with HCT-15 colon, over 100 µM; in the test with HOP-92 NSCLC, 12.2 µM; in the test with HS 578T breast, 77.6 µM; with HT29 colon it was over 100 µM. Also, in the test on SF-268 CNS, the TGI was 86.8 µM.
As for `CCOC(=O)c1cc(-c2ccccc2)[nH]c1N/N=C/c1ccc(Cl)cc1`, the GI50 was 81.5 µM in the test on A549 NSCLC; 49.3 µM in the test with HCT-15 colon; 46.9 µM in the test with HOP-92 NSCLC; 77.7 µM in the test on HS 578T breast; 37.3 µM in the test on HT29 colon; 58.1 µM with NCI-H460 lung. In addition, the GI50 with SF-268 CNS was over 100 µM. The TGI with A549 NSCLC, in the test with HCT-15 colon, in the test on HOP-92 NSCLC, in the test on HS 578T breast, with HT29 colon and in the test with NCI-H460 lung was over 100 µM each time. Besides, in the test with SF-268 CNS, the TGI was over 100 µM.
With `CN(C)CCNC(=O)Cn1cnc2cccc([N+](=O)[O-])c2c1=O`, the TGI with A498 renal, in the test on A549 NSCLC, in the test with HCT-15 colon, in the test on HS 578T breast, in the test with HT29 colon and in the test with NCI-H460 lung was over 100 µM each time. The same compound yielded a TGI in the test with SF-268 CNS of over 100 µM.
In the case of `O=NNc1ccc(Sc2ccc(NN=O)cn2)nc1`, the TGI with A498 renal, with A549 NSCLC, with HCT-15 colon, in the test with HS 578T breast, in the test with HT29 colon and in the test on NCI-H460 lung was over 100 µM throughout. The TGI in the test on SF-268 CNS is over 100 µM.
`CCOC(=O)C#Cc1c(C(=O)OCC)nnn1Cc1ccc([N+](=O)[O-])cc1`: the GI50 in the test on A498 renal is 15.2 µM; in the test on A549 NSCLC it was 20.6 µM; in the test with HCT-15 colon it was 1.66 µM; with HOP-92 NSCLC, 2.22 µM; in the test with HS 578T breast, 19.4 µM; in the test with NCI-H460 lung, 11.1 µM. For the same compound, the GI50 in the test with SF-268 CNS is 7.49 µM. For the same compound, the TGI in the test on A498 renal is 28.5 µM; in the test with A549 NSCLC it was 34.8 µM; in the test with HCT-15 colon, 3.29 µM; in the test with HOP-92 NSCLC it was 5.35 µM; with HS 578T breast it was 61.4 µM; in the test on NCI-H460 lung, 28 µM. The compound further had a TGI in the test on SF-268 CNS of 21.5 µM.
Regarding `O=C1c2ccccc2-c2c1c1c(O)cccc1n2Cc1ccccn1`, the GI50 was 45.3 µM in the test on A549 NSCLC; 53.8 µM in the test on HCT-15 colon; 17.7 µM in the test with HOP-92 NSCLC; 33.6 µM in the test on HS 578T breast; 88.6 µM with HT29 colon; 52.1 µM in the test on NCI-H460 lung. Besides, the GI50 with SF-268 CNS is 83.5 µM. In addition, the TGI in the test with A549 NSCLC, with HCT-15 colon, in the test on HOP-92 NSCLC, in the test with HS 578T breast, with HT29 colon and in the test on NCI-H460 lung was over 100 µM each time. In addition, in the test with SF-268 CNS, the TGI is over 100 µM.
For the compound `CN(C)CCNc1c2ccccc2nc2oc3ccccc3c12`, the GI50 was 3.28 µM in the test with A498 renal; 4.75 µM in the test with A549 NSCLC; 5.04 µM with HCT-15 colon; 4.6 µM with HS 578T breast; 3.97 µM in the test with HT29 colon; 3.37 µM in the test with NCI-H460 lung. Besides, the GI50 with SF-268 CNS was 5.81 µM. Further, the TGI was 13.8 µM in the test on A498 renal; 36 µM with A549 NSCLC; 25 µM in the test with HCT-15 colon; 20.1 µM with HS 578T breast; 19.6 µM in the test on HT29 colon; 13.3 µM in the test on NCI-H460 lung. Besides, the TGI in the test on SF-268 CNS turned out to be 27.7 µM.
As to `C=C1C(=O)O[C@H]2[C@H]1CC/C(COC(=O)C(C)c1ccc(CC(C)C)cc1)=C\CC[C@@]1(C)O[C@@H]21` (stereo partly drawn), the GI50 in the test on A549 NSCLC is 1.8 µM; in the test on HCT-15 colon, 0.871 µM; in the test with HOP-92 NSCLC, 0.747 µM; with HS 578T breast, 2.04 µM; in the test on HT29 colon, 1.11 µM; in the test on NCI-H460 lung, 1.56 µM. Besides, the GI50 in the test with SF-268 CNS is 1.72 µM. The TGI was determined as 3.65 µM in the test on A549 NSCLC; 2.37 µM in the test with HCT-15 colon; 2.14 µM with HOP-92 NSCLC; 5.97 µM with HS 578T breast; 2.59 µM in the test on HT29 colon; 3.16 µM with NCI-H460 lung. The TGI in the test on SF-268 CNS was determined as 3.5 µM.
Regarding `N#Cc1cc(S(=O)(=O)Nc2nnc(-c3ccccc3)c(-c3ccccc3)n2)c(SCc2ccccc2)cc1Cl`, the GI50 in the test on A498 renal is 23.5 µM; with A549 NSCLC it was 22.2 µM; with HCT-15 colon it was 17.4 µM; in the test with HOP-92 NSCLC, 18.4 µM; in the test with HS 578T breast, 22.4 µM; with NCI-H460 lung, 38.7 µM. The GI50 in the test with SF-268 CNS was 29.2 µM. Further, the TGI in the test with A498 renal is 45.2 µM; in the test with A549 NSCLC, 40.7 µM; with HCT-15 colon, 33.3 µM; in the test on HOP-92 NSCLC, 58.7 µM; with HS 578T breast it was 63.3 µM; with NCI-H460 lung, over 100 µM. Further, in the test with SF-268 CNS, the TGI is over 100 µM.
